Biological target: truncated PI3Kα (p110α/iSH2 p85α) (Homo sapiens (Human), UniProt P42336)
Test: PI3KA_Act fluorescence polarization kinase assay (Ki)
Format: biochemical
Conditions: 1 mM ATP
Method in brief: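 Ki values result from fitting fluorescence polarization signals to the Morrison equation for tight-binding competitive inhibitors. The detector was GST-Grp1 PH domain with TAMRA-PIP3, read after a 30 min room-temperature reaction of 0.5 nM truncated PI3Kα and 30 μM PIP2 at pH 7.4 in HEPES/NaCl/MgCl2/DTT/CHAPS buffer. Compounds were tested as 12-point 3-fold dilutions from 3 μM.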

Chain of truncated PI3Kα (p110α/iSH2 p85α) (P42336 whole entry, the tested form may be a part): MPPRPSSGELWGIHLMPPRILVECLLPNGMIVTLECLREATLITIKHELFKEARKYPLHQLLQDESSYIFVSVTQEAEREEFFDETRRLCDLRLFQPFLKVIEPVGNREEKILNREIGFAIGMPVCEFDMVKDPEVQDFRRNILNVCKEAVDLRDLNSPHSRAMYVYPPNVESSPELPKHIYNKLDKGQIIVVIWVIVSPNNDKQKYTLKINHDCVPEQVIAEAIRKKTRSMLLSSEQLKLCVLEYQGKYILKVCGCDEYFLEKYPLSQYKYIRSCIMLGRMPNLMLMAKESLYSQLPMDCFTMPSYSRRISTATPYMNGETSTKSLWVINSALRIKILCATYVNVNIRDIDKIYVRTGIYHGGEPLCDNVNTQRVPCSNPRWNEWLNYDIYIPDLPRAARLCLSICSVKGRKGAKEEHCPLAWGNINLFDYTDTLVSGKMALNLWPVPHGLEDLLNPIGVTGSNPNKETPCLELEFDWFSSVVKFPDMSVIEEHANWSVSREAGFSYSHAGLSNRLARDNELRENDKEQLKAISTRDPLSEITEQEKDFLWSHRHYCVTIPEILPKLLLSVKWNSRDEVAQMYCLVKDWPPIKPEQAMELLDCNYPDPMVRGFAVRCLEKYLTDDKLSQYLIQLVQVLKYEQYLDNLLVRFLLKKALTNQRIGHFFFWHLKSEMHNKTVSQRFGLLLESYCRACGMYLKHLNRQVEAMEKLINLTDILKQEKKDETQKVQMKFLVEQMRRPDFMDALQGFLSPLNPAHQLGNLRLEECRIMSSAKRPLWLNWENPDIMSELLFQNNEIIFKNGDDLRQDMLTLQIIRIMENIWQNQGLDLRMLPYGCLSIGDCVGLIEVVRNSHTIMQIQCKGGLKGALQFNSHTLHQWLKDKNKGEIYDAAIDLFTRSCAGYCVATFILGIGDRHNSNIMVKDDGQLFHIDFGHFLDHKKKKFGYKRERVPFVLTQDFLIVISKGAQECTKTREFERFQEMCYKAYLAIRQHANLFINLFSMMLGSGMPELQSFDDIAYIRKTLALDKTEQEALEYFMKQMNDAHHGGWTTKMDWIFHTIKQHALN

| SMILES | PI3KA_Act Ki [nM] | Ki [nM] |
| --- | --- | --- |
| CC(C)OC(=O)N1CC[C@](C)(N2CCc3c(-c4cnc(N)nc4)nc(N4CCOCC4)nc32)C1 [Example 406, propan-2-yl (3S)-3-[4-(2-aminopyrimidin-5-yl)-2-(morpholin-4-yl)-5,6-dihydro-7H-pyrrolo[2,3-d]pyrimidin-7-yl]-3-methylpyrrolidine-1-carboxylate] | <0.018 |  |
| CC(C)OC(=O)N1CC[C@@](C)(N2CCc3c(-c4cnc(N)nc4)nc(N4CCOCC4)nc32)C1 [Example 407, propan-2-yl (3R)-3-[4-(2-aminopyrimidin-5-yl)-2-(morpholin-4-yl)-5,6-dihydro-7H-pyrrolo[2,3-d]pyrimidin-7-yl]-3-methylpyrrolidine-1-carboxylate] | 0.235 |  |
| CC(C)(C)OC(=O)N1C[C@@H](N2CCc3c(-c4cnc(N)nc4)nc(N4CCOCC4)nc32)[C@@H](F)C1 [Example 408, tert-butyl (3R,4S)-3-[4-(2-aminopyrimidin-5-yl)-2-(morpholin-4-yl)-5,6-dihydro-7H-pyrrolo[2,3-d]pyrimidin-7-yl]-4-fluoropyrrolidine-1-carboxylate] |  | 1.08 |
| CC(C)(C)OC(=O)N1C[C@@H](F)[C@@H](N2CCc3c(-c4cnc(N)nc4)nc(N4CCOCC4)nc32)C1 [Example 409, tert-butyl (3S,4R)-3-[4-(2-aminopyrimidin-5-yl)-2-(morpholin-4-yl)-5,6-dihydro-7H-pyrrolo[2,3-d]pyrimidin-7-yl]-4-fluoropyrrolidine-1-carboxylate] | 0.168 |  |
| CC[C@@]1(N2CCc3c(-c4cnc(N)nc4)nc(N4CCOCC4)nc32)CCN(C(=O)OC(C)(C)C)C1 [Example 410, tert-butyl (3R)-3-[4-(2-aminopyrimidin-5-yl)-2-(morpholin-4-yl)-5,6-dihydro-7H-pyrrolo[2,3-d]pyrimidin-7-yl]-3-ethylpyrrolidine-1-carboxylate] |  | 0.262 |
| CC[C@]1(N2CCc3c(-c4cnc(N)nc4)nc(N4CCOCC4)nc32)CCN(C(=O)OC(C)(C)C)C1 [Example 411, tert-butyl (3S)-3-[4-(2-aminopyrimidin-5-yl)-2-(morpholin-4-yl)-5,6-dihydro-7H-pyrrolo[2,3-d]pyrimidin-7-yl]-3-ethylpyrrolidine-1-carboxylate] | <0.018 |  |
| CC(C)(N)COC(=O)N1CC[C@](C)(N2CCc3c(-c4cnc(N)nc4)nc(N4CCOCC4)nc32)C1.Cl [Example 412, 2-amino-2-methylpropyl (3S)-3-[4-(2-aminopyrimidin-5-yl)-2-(morpholin-4-yl)-5,6-dihydro-7H-pyrrolo[2,3-d]pyrimidin-7-yl]-3-methylpyrrolidine-1-carboxylate hydrochloride] | <0.018 |  |
| C[C@]1(N2CCc3c(-c4cnc(N)nc4)nc(N4CCOCC4)nc32)CCN(C(=O)OCC2CNC2)C1.Cl [Example 413, azetidin-3-ylmethyl (3S)-3-[4-(2-aminopyrimidin-5-yl)-2-(morpholin-4-yl)-5,6-dihydro-7H-pyrrolo[2,3-d]pyrimidin-7-yl]-3-methylpyrrolidine-1-carboxylate hydrochloride] | <0.018 |  |
| CC1(OC(=O)N2CC[C@](C)(N3CCc4c(-c5cnc(N)nc5)nc(N5CCOCC5)nc43)C2)CNC1.Cl [Example 414, 3-methylazetidin-3-yl (3S)-3-[4-(2-aminopyrimidin-5-yl)-2-(morpholin-4-yl)-5,6-dihydro-7H-pyrrolo[2,3-d]pyrimidin-7-yl]-3-methylpyrrolidine-1-carboxylate hydrochloride] | 0.039 |  |
| C[C@]1(N2CCc3c(-c4cnc(N)nc4)nc(N4CCOCC4)nc32)CCN(C(=O)OC2CNC2)C1.Cl [Example 415, azetidin-3-yl (3S)-3-[4-(2-aminopyrimidin-5-yl)-2-(morpholin-4-yl)-5,6-dihydro-7H-pyrrolo[2,3-d]pyrimidin-7-yl]-3-methylpyrrolidine-1-carboxylate hydrochloride] | <0.018 |  |
